What was measured:
[1] = biological target: T1, C-X-C chemokine receptor type 2 (Homo sapiens, UniProt P25025); assay type: cell membranes, Membrane; settings: cho-k1; note: in other assays of this panel Not Active means under 50% inhibition at 10 µM
T1 sequence (P25025 whole entry): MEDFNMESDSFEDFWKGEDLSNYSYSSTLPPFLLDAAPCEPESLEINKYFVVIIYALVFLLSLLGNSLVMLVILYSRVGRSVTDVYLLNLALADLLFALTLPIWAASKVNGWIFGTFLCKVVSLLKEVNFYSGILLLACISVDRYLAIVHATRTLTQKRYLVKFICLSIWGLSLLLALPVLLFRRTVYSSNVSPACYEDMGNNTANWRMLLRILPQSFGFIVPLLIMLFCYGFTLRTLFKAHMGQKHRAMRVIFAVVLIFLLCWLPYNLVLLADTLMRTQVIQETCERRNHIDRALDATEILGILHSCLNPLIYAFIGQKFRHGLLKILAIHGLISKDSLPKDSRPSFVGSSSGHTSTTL

[2] = biological target: T2, Muscarinic acetylcholine receptor M5 (Homo sapiens, UniProt P08912); assay type: cell membranes, CHO-K1, Membrane; settings: cho-k1; note: in other assays of this panel Not Active means under 50% inhibition at 10 µM
T2 sequence (P08912 whole entry): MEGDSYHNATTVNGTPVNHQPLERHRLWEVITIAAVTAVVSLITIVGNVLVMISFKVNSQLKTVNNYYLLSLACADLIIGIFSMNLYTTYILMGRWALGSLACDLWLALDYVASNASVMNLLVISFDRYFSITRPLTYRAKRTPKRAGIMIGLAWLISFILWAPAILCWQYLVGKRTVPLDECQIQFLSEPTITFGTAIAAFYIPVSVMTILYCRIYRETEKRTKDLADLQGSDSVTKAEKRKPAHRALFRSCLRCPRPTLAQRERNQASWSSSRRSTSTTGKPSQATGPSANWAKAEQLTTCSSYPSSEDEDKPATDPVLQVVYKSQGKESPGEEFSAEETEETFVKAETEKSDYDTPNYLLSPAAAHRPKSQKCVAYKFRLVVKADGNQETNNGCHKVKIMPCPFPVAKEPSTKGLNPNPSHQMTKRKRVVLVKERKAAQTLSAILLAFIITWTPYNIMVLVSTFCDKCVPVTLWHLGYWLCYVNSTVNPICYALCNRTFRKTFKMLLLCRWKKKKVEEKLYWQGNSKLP

[3] = biological target: T3, 5-hydroxytryptamine receptor 1A (Rattus norvegicus, UniProt P19327); assay type: cell membranes, CHO-K1, Membrane; settings: cho-k1; note: in other assays of this panel Not Active means under 50% inhibition at 10 µM
T3 sequence (P19327 whole entry): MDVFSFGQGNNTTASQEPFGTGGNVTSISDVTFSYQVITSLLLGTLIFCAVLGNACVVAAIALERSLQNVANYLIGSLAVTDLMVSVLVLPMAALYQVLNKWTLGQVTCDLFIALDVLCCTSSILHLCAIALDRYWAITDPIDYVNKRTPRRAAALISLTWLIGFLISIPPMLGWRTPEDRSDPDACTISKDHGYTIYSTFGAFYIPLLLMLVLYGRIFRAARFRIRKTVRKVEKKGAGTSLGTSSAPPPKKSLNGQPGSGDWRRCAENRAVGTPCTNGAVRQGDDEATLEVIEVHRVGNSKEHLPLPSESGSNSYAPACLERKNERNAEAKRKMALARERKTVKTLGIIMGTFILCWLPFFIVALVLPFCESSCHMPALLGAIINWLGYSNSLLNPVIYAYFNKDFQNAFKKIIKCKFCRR

Cytochrome P450 2E1 = Cytochrome P450 2E1 (Homo sapiens, UniProt P05181); settings: bti-tn-5b1-4; note: in other assays of this panel Not Active means under 50% inhibition at 10 µM
Sequence of Cytochrome P450 2E1 (P05181 whole entry): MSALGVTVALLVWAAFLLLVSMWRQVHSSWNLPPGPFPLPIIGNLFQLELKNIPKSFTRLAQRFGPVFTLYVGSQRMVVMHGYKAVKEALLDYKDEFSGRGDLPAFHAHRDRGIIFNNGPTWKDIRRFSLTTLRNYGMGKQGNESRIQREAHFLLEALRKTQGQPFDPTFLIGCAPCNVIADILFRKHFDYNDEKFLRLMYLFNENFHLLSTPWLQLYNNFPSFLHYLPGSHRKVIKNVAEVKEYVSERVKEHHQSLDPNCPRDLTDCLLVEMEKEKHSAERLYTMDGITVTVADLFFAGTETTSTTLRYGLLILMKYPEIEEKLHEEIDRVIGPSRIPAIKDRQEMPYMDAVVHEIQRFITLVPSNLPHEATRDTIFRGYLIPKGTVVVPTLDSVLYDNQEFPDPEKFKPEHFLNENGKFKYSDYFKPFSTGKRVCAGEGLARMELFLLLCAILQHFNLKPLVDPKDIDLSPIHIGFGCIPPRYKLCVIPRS

[4] = DRUGMATRIX: Serotonin (5-Hydroxytryptamine) 5-HT3 radioligand binding (ligand: [3H] GR-65630); assay type: cell membranes, Membrane; settings: hek293; Not Active = under 50% inhibition at 10 µM
Cytochrome P450 2C9 = Cytochrome P450 2C9 (Homo sapiens, UniProt P11712); settings: bti-tn-5b1-4; note: in other assays of this panel Not Active means under 50% inhibition at 10 µM
Sequence of Cytochrome P450 2C9 (P11712 whole entry): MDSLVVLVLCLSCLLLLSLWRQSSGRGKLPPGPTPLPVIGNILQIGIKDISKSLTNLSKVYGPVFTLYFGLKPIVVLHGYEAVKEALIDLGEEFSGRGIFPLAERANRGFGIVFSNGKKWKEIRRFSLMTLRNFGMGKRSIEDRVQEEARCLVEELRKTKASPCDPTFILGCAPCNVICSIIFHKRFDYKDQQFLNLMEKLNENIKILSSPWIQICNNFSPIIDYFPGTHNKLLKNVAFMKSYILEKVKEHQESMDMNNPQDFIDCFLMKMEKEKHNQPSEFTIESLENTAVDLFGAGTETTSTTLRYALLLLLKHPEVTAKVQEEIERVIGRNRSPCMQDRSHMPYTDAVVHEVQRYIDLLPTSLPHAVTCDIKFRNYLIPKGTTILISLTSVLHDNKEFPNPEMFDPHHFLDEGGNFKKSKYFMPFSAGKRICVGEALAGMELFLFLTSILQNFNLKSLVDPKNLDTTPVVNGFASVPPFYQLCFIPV

Estrogen receptor = biological target: T4, Estrogen receptor (Homo sapiens, UniProt P03372); settings: sf9; note: in other assays of this panel Not Active means under 50% inhibition at 10 µM
T4 sequence (P03372 whole entry): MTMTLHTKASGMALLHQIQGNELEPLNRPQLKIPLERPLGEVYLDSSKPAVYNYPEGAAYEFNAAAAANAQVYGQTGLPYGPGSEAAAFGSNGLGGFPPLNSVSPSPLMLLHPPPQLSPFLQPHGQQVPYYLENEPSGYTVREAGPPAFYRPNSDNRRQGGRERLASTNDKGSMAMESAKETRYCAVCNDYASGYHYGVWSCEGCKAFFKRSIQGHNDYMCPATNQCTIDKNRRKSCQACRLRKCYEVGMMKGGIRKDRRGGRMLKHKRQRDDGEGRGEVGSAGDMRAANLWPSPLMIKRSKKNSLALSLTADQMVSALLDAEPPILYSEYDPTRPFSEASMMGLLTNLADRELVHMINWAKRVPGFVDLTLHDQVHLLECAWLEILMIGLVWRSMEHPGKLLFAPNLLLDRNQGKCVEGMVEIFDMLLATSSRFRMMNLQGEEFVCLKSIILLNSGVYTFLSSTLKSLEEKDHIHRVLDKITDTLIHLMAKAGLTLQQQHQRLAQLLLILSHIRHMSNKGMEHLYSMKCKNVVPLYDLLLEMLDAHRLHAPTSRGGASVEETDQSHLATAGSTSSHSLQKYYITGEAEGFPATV

NC(=O)c1cccc(N)c1 [3-AMINOBENZAMIDE]
Not Active: IC50 [1] | IC50 [2] | IC50 [3] | IC50 (Cytochrome P450 2E1) | Ki (Cytochrome P450 2E1) | IC50 [4] | Ki [4] | IC50 (Cytochrome P450 2C9) | Ki (Cytochrome P450 2C9) | IC50 (Estrogen receptor)

NC(=O)c1cccnc1 [NIACINAMIDE]
Not Active: IC50 [1] | IC50 [2] | IC50 [3] | IC50 (Cytochrome P450 2E1) | Ki (Cytochrome P450 2E1) | IC50 [4] | Ki [4] | IC50 (Cytochrome P450 2C9) | Ki (Cytochrome P450 2C9) | IC50 (Estrogen receptor)

CC(C)NCC(O)c1ccccc1Cl (stereo not drawn) [CLORPRENALINE]
Not Active: IC50 [1] | IC50 [2] | IC50 [3] | IC50 (Cytochrome P450 2E1) | Ki (Cytochrome P450 2E1) | IC50 [4] | Ki [4] | IC50 (Cytochrome P450 2C9) | Ki (Cytochrome P450 2C9) | IC50 (Estrogen receptor)

CC[C@]1(O)C[C@@H]2CN(CCc3c([nH]c4ccccc34)[C@@](C(=O)OC)(c3cc4c(cc3OC)N(C)[C@H]3[C@@](O)(C(N)=O)[C@H](O)[C@]5(CC)C=CCN6CC[C@]43[C@@H]65)C2)C1 [VINDESINE]
Not Active: IC50 [1] | IC50 [2] | IC50 [3] | IC50 (Cytochrome P450 2E1) | Ki (Cytochrome P450 2E1) | IC50 [4] | Ki [4] | IC50 (Cytochrome P450 2C9) | Ki (Cytochrome P450 2C9) | IC50 (Estrogen receptor)

C[C@@H]1O[C@@H](O[C@H]2C[C@@H](O)[C@]3(CO)[C@H]4[C@H](O)C[C@]5(C)[C@@H](C6=CC(=O)OC6)CC[C@]5(O)[C@@H]4CC[C@]3(O)C2)[C@H](O)[C@H](O)[C@H]1O [OUABAIN]
Not Active: IC50 [1] | IC50 [2] | IC50 [3] | IC50 (Cytochrome P450 2E1) | Ki (Cytochrome P450 2E1) | IC50 [4] | Ki [4] | IC50 (Cytochrome P450 2C9) | Ki (Cytochrome P450 2C9) | IC50 (Estrogen receptor)

O=C(O)CCNC(=O)c1ccc(/N=N/c2ccc(O)c(C(=O)O)c2)cc1 [BALSALAZIDE]
Not Active: IC50 [1] | IC50 [2] | IC50 [3] | IC50 (Cytochrome P450 2E1) | Ki (Cytochrome P450 2E1) | IC50 [4] | Ki [4] | IC50 (Cytochrome P450 2C9) | Ki (Cytochrome P450 2C9) | IC50 (Estrogen receptor)

CN1C(=O)CN=C(c2ccccc2)c2cc([N+](=O)[O-])ccc21 [NIMETAZEPAM]
Not Active: IC50 [1] | IC50 [2] | IC50 [3] | IC50 (Cytochrome P450 2E1) | Ki (Cytochrome P450 2E1) | IC50 [4] | Ki [4] | IC50 (Cytochrome P450 2C9) | Ki (Cytochrome P450 2C9) | IC50 (Estrogen receptor)

CC(=O)OCC(=O)[C@@]1(O)CC[C@H]2[C@@H]3CCC4=CC(=O)CC[C@]4(C)[C@@]3(F)[C@@H](O)C[C@@]21C [FLUDROCORTISONE ACETATE]
Not Active: IC50 [1] | IC50 [2] | IC50 [3] | IC50 (Cytochrome P450 2E1) | Ki (Cytochrome P450 2E1) | IC50 [4] | Ki [4] | IC50 (Cytochrome P450 2C9) | Ki (Cytochrome P450 2C9) | IC50 (Estrogen receptor)

COLISTIN
Not Active: IC50 [1] | Ki [1] | IC50 [2] | Ki [2] | IC50 [3] | Ki [3] | IC50 (Cytochrome P450 2E1) | Ki (Cytochrome P450 2E1) | IC50 [4] | Ki [4] | IC50 (Cytochrome P450 2C9) | Ki (Cytochrome P450 2C9) | IC50 (Estrogen receptor) | Ki (Estrogen receptor)

CN1C[C@@H]2C[C@H]1CN2c1cc2c(cc1F)c(=O)c(C(=O)O)cn2C1CC1 [DANOFLOXACIN]
Not Active: IC50 [1] | IC50 [2] | IC50 [3] | IC50 (Cytochrome P450 2E1) | Ki (Cytochrome P450 2E1) | IC50 [4] | Ki [4] | IC50 (Cytochrome P450 2C9) | Ki (Cytochrome P450 2C9) | IC50 (Estrogen receptor)

C[C@]12C=CC(=O)C=C1CC[C@H]1[C@@H]3C[C@@H](O)[C@](O)(C(=O)CO)[C@@]3(C)C[C@H](O)[C@@]12F [TRIAMCINOLONE]
Not Active: IC50 [1] | IC50 [2] | IC50 [3] | IC50 (Cytochrome P450 2E1) | Ki (Cytochrome P450 2E1) | IC50 [4] | Ki [4] | IC50 (Cytochrome P450 2C9) | Ki (Cytochrome P450 2C9) | IC50 (Estrogen receptor)

CN1CCN(c2c(F)cc3c(=O)c(C(=O)O)cn(CCF)c3c2F)CC1 [FLEROXACIN]
Not Active: IC50 [1] | IC50 [2] | IC50 [3] | IC50 (Cytochrome P450 2E1) | Ki (Cytochrome P450 2E1) | IC50 [4] | Ki [4] | IC50 (Cytochrome P450 2C9) | Ki (Cytochrome P450 2C9) | IC50 (Estrogen receptor)

CCOC(=O)c1ncn2c1CN(C)C(=O)c1cc(F)ccc1-2 [FLUMAZENIL]
Not Active: IC50 [1] | IC50 [2] | IC50 [3] | IC50 (Cytochrome P450 2E1) | Ki (Cytochrome P450 2E1) | IC50 [4] | Ki [4] | IC50 (Cytochrome P450 2C9) | Ki (Cytochrome P450 2C9) | IC50 (Estrogen receptor)

COBALTOUS CHLORIDE
Not Active: IC50 [1] | Ki [1] | IC50 [2] | Ki [2] | IC50 [3] | Ki [3] | IC50 (Cytochrome P450 2E1) | Ki (Cytochrome P450 2E1) | IC50 [4] | Ki [4] | IC50 (Cytochrome P450 2C9) | Ki (Cytochrome P450 2C9) | IC50 (Estrogen receptor) | Ki (Estrogen receptor)

CC(=O)Oc1ccccc1C(=O)O [ASPIRIN]
Not Active: IC50 [1] | IC50 [2] | IC50 [3] | IC50 (Cytochrome P450 2E1) | Ki (Cytochrome P450 2E1) | IC50 [4] | Ki [4] | IC50 (Cytochrome P450 2C9) | Ki (Cytochrome P450 2C9) | IC50 (Estrogen receptor)

Cc1cccc(C)c1NC(=O)C1CCCCN1C (stereo not drawn) [MEPIVACAINE]
Not Active: IC50 [1] | IC50 [2] | IC50 [3] | IC50 (Cytochrome P450 2E1) | Ki (Cytochrome P450 2E1) | IC50 [4] | Ki [4] | IC50 (Cytochrome P450 2C9) | Ki (Cytochrome P450 2C9) | IC50 (Estrogen receptor)

O=c1[nH]c(=O)n([C@H]2C[C@H](O)[C@@H](CO)O2)cc1F [FLOXURIDINE]
Not Active: IC50 [1] | IC50 [2] | IC50 [3] | IC50 (Cytochrome P450 2E1) | Ki (Cytochrome P450 2E1) | IC50 [4] | Ki [4] | IC50 (Cytochrome P450 2C9) | Ki (Cytochrome P450 2C9) | IC50 (Estrogen receptor)

O=C(O)CC(O)(CC(=O)O)C(=O)O [CITRIC ACID]
Not Active: IC50 [1] | IC50 [2] | IC50 [3] | IC50 (Cytochrome P450 2E1) | Ki (Cytochrome P450 2E1) | IC50 [4] | Ki [4] | IC50 (Cytochrome P450 2C9) | Ki (Cytochrome P450 2C9) | IC50 (Estrogen receptor)

O=C(O)CCCc1cccs1
Not Active: IC50 [1] | IC50 [2] | IC50 [3] | IC50 (Cytochrome P450 2E1) | Ki (Cytochrome P450 2E1) | IC50 [4] | Ki [4] | IC50 (Cytochrome P450 2C9) | Ki (Cytochrome P450 2C9) | IC50 (Estrogen receptor)

From ChEMBL document CHEMBL1909046, “DrugMatrix in vitro pharmacology data”
